Assay results reported in paper PMC12155470, “Novel Tetraene Macrodiolides Are Effective Inducers of Mitochondrial Apoptosis in Jurkat Cells” (International Journal of Molecular Sciences, 2025).

How the values were obtained:
[1] = system: Jurkat; test: In vitro cytotoxic activity, 7-AAD flow cytometry, Jurkat; type: cell-based, Human; conditions: 24 h incubation, mean ± SD, triplicate
Text: (§1) The investigation focused on the assessment of the synthesized compounds’ toxicities, utilizing a panel of six diverse cell lines. The selection of cells was based on the specific features of their metabolism, namely, Jurkat, K562, U937, and HL60 cells are suspension cultures of oncohematologic origin, and HEK293 is a conditionally normal line transformed by adenovirus and often used as control cells along with fibroblasts. The normal fibroblast line (Wi-38) utilized in the experiment was diploid and was obtained from the lung tissue of an aborted fetus. The total cytotoxic activity of 16 compounds was studied using flow cytometry.
(§2) Human cancer cell lines, including Jurkat, K562, U937, HL60, and fibroblasts (Wi-38), were obtained from the European Authentic Cell Culture Collection and further cultured according to established standard protocols using sterile methods. The cells were cultivated in RPMI 1640 (for Jurkat and K562) and DMEM (for Wi-38 and HEK293) media (Gibco, Billings, MT, USA), with the addition of […] glutamine, 10% FBS (Sigma, Kanagawa, Japan), and 100 U/mL penicillin–streptomycin (Sigma). All cell types were cultivated in a humidified atmosphere containing 5% CO₂ at a temperature of 37 °C. Subculturing was performed at two- to three-day intervals. The cells were subsequently seeded into 24-well plates at a density of 5 × 10^4 cells per well and incubated overnight. Subsequent subculturing was then performed at two-day intervals, with a seeding density of 1 × 10^5 cells per 24-well plate, using RPMI medium with 10% FBS [49].
(§3) The dissolution of the compounds tested was initially performed in dimethyl sulfoxide (DMSO) with an initial solution of 100 mM in 10% DMSO. Subsequently, the solution was diluted in a complete culture medium, namely, Dulbecco’s medium, modified Eagle’s medium (DMEM), or Roswell Park Memorial Institute medium (RPMI). Substances were added at concentrations of 10, 1, 100, 10, 1, and 0.1 μM on the day after seeding and incubated for 24 h. Following this, the cells were washed with a phosphate-buffered saline (PBS) solution and stained with 7AAD dye, as per the manufacturer’s protocol for flow cytometry. The CC50 value, which characterizes the parameters of toxicity (i.e., the concentration of the compound required for 50% inhibition of cell viability in vitro), was calculated. logC versus % inhibition was plotted, and statistical data processing was performed using Excel and GraphPad Prism v.8.0.2 (San Diego, CA, USA, 2019). The data obtained from three independent experiments were expressed as the mean of three measurements for each concentration, with the standard deviation indicated as well. These values were then relative to the control values (0.1% DMSO), which were taken as 100%.
(§4) 7-AAD (7-aminoactinomycin D) dye (eBioscience™, San Diego, CA, USA) was used to assess cell viability. Following incubation with the test compounds, the cells were harvested, washed with a phosphate–salt buffer (PBS), and subjected to centrifugation at 400× g for five minutes. The cell sediment was resuspended in 200 μL of staining buffer for flow cytometry (PBS without calcium and magnesium, 2.5% FBS) and stained with a 1 mM 7-AAD dye solution for 15 min in the dark at room temperature. Subsequently, all samples, including experimental and control groups, were analyzed using a BD FACSAria™ III Cell Sorter flow cytometer (Milpitas, CA, USA).

[2] = system: Jurkat cells; test: Mitodamage assay (MitoSense Red, Annexin V-CF488A, 7-AAD); type: cell-based, Human; conditions: compound at CC50 concentration, four hours
Description: To this end, MitoSense Red, a fluorescent dye that accumulates predominantly in mitochondria and responds to changes in membrane potential, was utilized. […] Two dyes commonly employed for detecting apoptosis in cells are annexin V and 7AAD. […] Therefore, the dissipation of mitochondrial membrane potential and the associated apoptosis process in Jurkat tumor cells were analyzed in response to exposure to synthesized macrodiolides. MitoSense Red, Annexin V-CF488A, and 7-AAD were used as dyes for this analysis (see Figure 3). A flow cytometry kit (FlowCellect™ MitoDamage Kit from Millipore, Hayward, CA USA) was utilized, as it facilitates a multiparametric evaluation of three markers of cell health. These markers include changes in mitochondrial potential (early apoptosis and cell stress), phosphatidylserine expression on the cell surface (late apoptosis), and membrane permeability (cell death). The method of the simultaneous detection of mitochondrial damage was performed according to the well-known technique.  Figure 3 Detection changes in mitochondrial membrane potential (ΔΨ) and coupled early and late apoptosis in Jurkat cells treated with compounds 9d, 8d, 7d, and 6d. Staurosporine and carbonyl cyanide-m-chlorophenylhydrazone were utilized as control compounds. The addition of all the tested compounds was executed at the CC50 concentration (refer to the provided table for the cytotoxicities of the synthesized compounds). The staining of cells was conducted using MitoSense Red, Annexin V-CF488A, and 7-AAD. The incubation period lasted for a duration of four hours. The presence of three *** (p < 0.001) and two asterisks ** (p < 0.005) indicates the significance of the observed differences between the values obtained in the control sample and the samples treated with the synthesized substances (comparison was performed by one-way ANOVA). All experiments were performed in triplicate.

[3] = system: Jurkat cells; test: Cytochrome C assay (flow cytometry); type: cell-based, Human; conditions: compound at CC50 concentration, 6 h (Figure 4; method says four hours)
Text: The quantification of cytochrome c release from the mitochondria in apoptotic cells was used to detect the mitochondrial pathway of apoptosis in the cells by flow cytometry. This study employed a direct labeling method that utilized an anti-cytochrome cFITC antibody, an anti-IgG1-FITC isotype control, and optimized fixation, permeabilization, and blocking buffers to detect cytochrome c by flow cytometry (Luminex®, Austin, TX, USA). […] The Jurkat cells were exposed to test substances at concentrations corresponding to their 24-h CC50 in these cells for a period of four hours. Thereafter, analysis by flow cytometry (NovoCyte Flow Cytometry™ Agilent, San Diego, CA, USA) was conducted. The acquired data were processed using NovoExpress® software (version 1.6.2) (ACEA (Agilent, Santa Clara, CA, USA)).
Figure 4 Detection of cytochrome c in Jurkat cells stained with a FlowCellect Cytochrome c Kit. The control compound, carbonyl cyanide m-chlorophenylhydrazone (CCCP), was administered at a concentration equal to its CC50 value. Compound 9d was added to the sample cells at a CC50 concentration (see the table of cell viability). The cells were incubated for 6 h. We compared the numerical values to determine the reliability of the differences observed between the control sample and the samples treated with the synthesized substances. […]

[4] = In vitro cytotoxic activity, 7-AAD flow cytometry, normal fibroblasts; type: cell-based; conditions: human, Wi-38 normal lung fibroblasts, normal fibroblasts Wi-38, 24 h incubation, mean ± SD, read-out: Fibrobl. (CC50)
Text: as §1, §2, §3, §4

[5] = system: U937; test: In vitro cytotoxic activity, 7-AAD flow cytometry, U937; type: cell-based, Human; conditions: Homo sapiens, U-937, 24 h, 24 h incubation, mean ± SD, triplicate
Text: as §1, §2, §3, §4

[6] = In vitro cytotoxic activity, 7-AAD flow cytometry, Hek293; type: cell-based; conditions: human, HEK293 cells, conditionally normal line, 24 h incubation, mean ± SD
Text: as §1, §2, §3, §4

[7] = system: HL60; test: In vitro cytotoxic activity, 7-AAD flow cytometry, HL60; type: cell-based; conditions: Homo sapiens, HL-60, 24 h incubation, mean ± SD, triplicate
Text: as §1, §2, §3, §4

[8] = system: K562; test: In vitro cytotoxic activity, 7-AAD flow cytometry, K562; type: cell-based, Human; conditions: 24 h incubation, mean ± SD, triplicate
Text: as §1, §2, §3, §4

Q: For O=C1CCCCC/C=C\CC/C=C\CCCCCC(=O)OCCCCCC/C=C\CC/C=C\CCCCCCO1 [Compound 9d], which CC50 [1] is on record?
A: 12.1 ± 1.77 nM

Q: And the CC50 ([1]; Homo sapiens, Jurkat, 24 h)?
A: 11 nM

Q: And the “percentage of cells in apoptosis” value ([2]; Jurkat, Annexin V-CF488A/7-AAD)?
A: 50.34%

Q: And the “Jurkat cells with reduced mitochondrial membrane potential (Δψ dissipation)” value ([2]; MitoSense Red)?
A: 77.42%

Q: What about the “cells releasing cytochrome c into the cytoplasm (Cytochrome loss %)” value [3] of the same molecule?
A: 68.22%

Q: And the CC50 at 24 h [4]?
A: 64.3 ± 5.81 nM

Q: And the CC50 [5]?
A: 12.2 ± 1.41 nM

Q: What about the CC50 at 24 h [6] of the same molecule?
A: 42.6 ± 4.31 nM

Q: And the CC50 [7]?
A: 13.5 ± 1.21 nM

Q: And the CC50 [8]?
A: 11 ± 1.25 nM

Q: And the CC50 ([8]; Homo sapiens, K562, 24 h)?
A: 12.1 nM
